From PMC10641921, “Optimization of mTOR Inhibitors Using Property-Based Drug Design and Free–Wilson Analysis for Improved In Vivo Efficacy” (ACS Medicinal Chemistry Letters, 2023)

Legend:
[1] = target: human ether-a-go-go (hERG) (Homo sapiens, UniProt Q12809); experiment: hERG patch clamp; assay type: cell-based
[2] = tested on: interleukin-1 receptor-associated kinase 4 (IRAK1); experiment: Kinase panel (Invitrogen) at 1 μM, IRAK1; assay type: biochemical
DNA-PK = target: T1, DNA-PK (Homo sapiens, UniProt P78527); experiment: DNA-PK inhibition (Invitrogen); assay type: biochemical
T1 construct: purchased Invitrogen

PI3Kδ = PI3Kδ selectivity; assay type: biochemical
[3] = Human liver microsome intrinsic clearance; assay type: in vitro ADME
CYP2C8 = target: T2, CYP2C8 (Homo sapiens, UniProt P10632); experiment: CYP inhibition, 2C8; assay type: in vitro ADME; conditions: most potently inhibited CYP isoform
T2 sequence (P10632 1-490): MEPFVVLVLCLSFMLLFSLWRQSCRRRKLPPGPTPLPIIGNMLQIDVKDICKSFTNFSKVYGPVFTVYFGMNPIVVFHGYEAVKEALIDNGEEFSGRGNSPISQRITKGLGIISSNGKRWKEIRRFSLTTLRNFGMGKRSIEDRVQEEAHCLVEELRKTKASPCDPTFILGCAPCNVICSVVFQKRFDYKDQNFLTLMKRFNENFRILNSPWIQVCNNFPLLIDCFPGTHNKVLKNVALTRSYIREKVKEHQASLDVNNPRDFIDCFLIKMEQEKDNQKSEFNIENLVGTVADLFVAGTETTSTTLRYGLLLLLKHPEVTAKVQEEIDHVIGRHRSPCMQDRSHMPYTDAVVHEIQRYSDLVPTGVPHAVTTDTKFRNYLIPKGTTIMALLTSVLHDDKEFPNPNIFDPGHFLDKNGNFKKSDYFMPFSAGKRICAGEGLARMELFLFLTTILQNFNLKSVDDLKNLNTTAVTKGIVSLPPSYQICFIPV

[4] = Ames test with and without S9; assay type: cell-based; conditions: with and without S9 activation
[5] = target: T3, cyclin-dependent kinase 9 (CDK9) (Homo sapiens, UniProt P50750); experiment: Kinase panel (Invitrogen) at 1 μM, CDK9; assay type: biochemical
T3 construct: purchased Invitrogen
T3 sequence (P50750 whole entry): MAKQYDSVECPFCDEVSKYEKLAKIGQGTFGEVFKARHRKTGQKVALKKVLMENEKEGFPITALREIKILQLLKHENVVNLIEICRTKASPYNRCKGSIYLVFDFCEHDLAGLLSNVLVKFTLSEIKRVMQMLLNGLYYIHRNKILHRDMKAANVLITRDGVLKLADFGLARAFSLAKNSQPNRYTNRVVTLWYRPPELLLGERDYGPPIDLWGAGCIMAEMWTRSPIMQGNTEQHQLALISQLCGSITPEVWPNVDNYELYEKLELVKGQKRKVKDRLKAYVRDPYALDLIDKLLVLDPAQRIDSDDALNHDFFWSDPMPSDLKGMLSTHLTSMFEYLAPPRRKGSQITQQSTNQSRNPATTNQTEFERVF
T3 sequence (O60563 whole entry partner): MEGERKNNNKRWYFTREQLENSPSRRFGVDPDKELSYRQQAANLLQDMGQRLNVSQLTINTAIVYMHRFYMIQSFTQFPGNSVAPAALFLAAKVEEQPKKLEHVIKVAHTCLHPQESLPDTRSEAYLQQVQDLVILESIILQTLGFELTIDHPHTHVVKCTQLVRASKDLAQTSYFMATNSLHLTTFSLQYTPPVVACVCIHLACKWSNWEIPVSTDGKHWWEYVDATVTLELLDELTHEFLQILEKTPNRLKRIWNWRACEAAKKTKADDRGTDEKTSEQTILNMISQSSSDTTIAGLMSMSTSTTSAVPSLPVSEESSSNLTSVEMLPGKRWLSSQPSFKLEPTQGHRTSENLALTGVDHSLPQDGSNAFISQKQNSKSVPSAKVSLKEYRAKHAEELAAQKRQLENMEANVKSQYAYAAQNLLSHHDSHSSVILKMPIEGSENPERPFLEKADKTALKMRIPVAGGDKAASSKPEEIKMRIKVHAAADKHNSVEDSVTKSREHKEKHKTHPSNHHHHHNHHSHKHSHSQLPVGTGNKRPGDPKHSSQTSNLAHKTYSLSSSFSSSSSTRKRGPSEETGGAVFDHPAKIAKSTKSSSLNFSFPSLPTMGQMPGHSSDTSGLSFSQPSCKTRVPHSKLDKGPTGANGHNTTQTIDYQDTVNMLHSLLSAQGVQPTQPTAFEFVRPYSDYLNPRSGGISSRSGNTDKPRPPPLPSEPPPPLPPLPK

PI3Kγ = PI3Kγ selectivity; assay type: biochemical
PI3Kβ = PI3Kβ selectivity; assay type: biochemical
panel of 298 kinases = experiment: Panel of 298 kinases (Invitrogen); assay type: biochemical; conditions: 298 kinases tested at 1 μM
[6] = tested on: pS6K-T389 in PC-3 cells (TORC1); experiment: Cellular pS6K-T389 assay in PC-3 cells (TORC1 activity); assay type: cell-based; conditions: Homo sapiens, read-out: pS6K-T389 cell IC50
From the text: Our previously reported inhibitor 1 (Figure 1) was potent against mTOR and selective against the off-target PI3Kα.[10]−[12] The target product profile for 1 and the next-generation analogs described here was for a dual inhibitor against both TORC1 and TORC2. […] We undertook a campaign to identify analogs that had improved prospects for a lower efficacious dose while retaining the favorable selectivity and safety profile of compound 1.

mouse xenograft models = experiment: Mouse xenograft models (earlier efficacy of lead 1); assay type: in vivo; conditions: 10 and 30 mpk
[7] = target: T4, FRAP1 (mTOR) recombinant protein (Homo sapiens, UniProt P42345); experiment: mTOR kinase inhibition assay (TR-FRET, GFP-4E-BP1); assay type: biochemical; conditions: enzyme
T4 construct: purchased Invitrogen (Carlsbad, CA, US)
T4 sequence (P42345 1360-2549 limits assumed): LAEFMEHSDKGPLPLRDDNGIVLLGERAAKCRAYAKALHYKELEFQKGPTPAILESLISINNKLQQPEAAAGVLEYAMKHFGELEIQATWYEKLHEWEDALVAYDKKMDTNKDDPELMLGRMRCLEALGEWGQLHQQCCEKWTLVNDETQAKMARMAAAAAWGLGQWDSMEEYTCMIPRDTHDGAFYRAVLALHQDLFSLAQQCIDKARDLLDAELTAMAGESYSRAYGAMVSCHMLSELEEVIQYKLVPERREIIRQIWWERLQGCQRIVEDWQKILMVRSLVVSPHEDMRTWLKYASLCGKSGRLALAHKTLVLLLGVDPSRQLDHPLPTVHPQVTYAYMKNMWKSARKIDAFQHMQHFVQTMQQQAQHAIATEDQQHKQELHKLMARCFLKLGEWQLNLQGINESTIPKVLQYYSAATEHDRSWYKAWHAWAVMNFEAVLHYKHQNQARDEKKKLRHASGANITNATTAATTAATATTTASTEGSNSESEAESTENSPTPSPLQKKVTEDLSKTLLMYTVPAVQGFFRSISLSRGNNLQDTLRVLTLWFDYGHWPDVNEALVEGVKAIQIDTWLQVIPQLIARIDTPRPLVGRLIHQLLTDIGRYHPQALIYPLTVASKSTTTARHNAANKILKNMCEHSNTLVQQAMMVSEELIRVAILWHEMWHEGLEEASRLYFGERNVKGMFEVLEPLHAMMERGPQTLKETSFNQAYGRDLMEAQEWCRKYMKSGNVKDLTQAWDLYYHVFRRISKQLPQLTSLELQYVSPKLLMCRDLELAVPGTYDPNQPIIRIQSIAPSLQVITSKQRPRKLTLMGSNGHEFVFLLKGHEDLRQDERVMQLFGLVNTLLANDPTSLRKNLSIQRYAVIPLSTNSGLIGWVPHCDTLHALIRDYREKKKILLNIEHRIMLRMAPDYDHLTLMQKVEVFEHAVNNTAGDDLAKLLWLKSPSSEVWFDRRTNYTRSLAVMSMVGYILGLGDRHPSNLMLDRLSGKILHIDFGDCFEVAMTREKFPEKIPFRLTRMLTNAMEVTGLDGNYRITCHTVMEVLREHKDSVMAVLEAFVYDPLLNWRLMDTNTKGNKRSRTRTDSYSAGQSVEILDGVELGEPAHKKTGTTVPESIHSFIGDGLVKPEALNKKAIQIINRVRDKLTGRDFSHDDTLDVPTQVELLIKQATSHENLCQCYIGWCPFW
Description: FRAP1 (mTOR) recombinant protein and GFP-4E-BP1 were purchased from Invitrogen (Carlsbad, CA, US).
The kinase activity assay was conducted in 50 mM Hepes buffer containing 10 mM MgCl2, 0.01% Brij, 0.2 mM EDTA, 2 mM DTT and 1% DMSO (after compound addition) at pH 7.3.
The IC50 value for each compound was determined in the presence of compound (various concentrations, from 0 to 10 μM) and a fixed amount of ATP (50 μM, final concentration), substrate GFP-4E-BP1 (400 nM, final concentration). The enzymatic reaction was initiated by adding FRAP1 (mTOR) (2 nM, final concentration). The assay was conducted at room temperature (~22 °C). After 30 min, the enzymatic reaction was stopped using Tb-anti-p4E-BP1 (2 nM final concentration, Invitrogen) and EDTA (20 mM final concentration, Sigma) in TR-FRET dilution buffer provided by Invitrogen. All the reagents were dispensed using a Multidrop Combi reagent dispenser (ThermoFisher Scientific, Waltham, […]
The release of product was detected using a BMG PHERAstar plate reader (BMG LABTECH, Ortenberg, Germany) and the Lantha Screen module (337 nm excitation wavelength) and measuring the ratio of fluorescence 520/490 nm (emission wavelengths). Experimental data was fitted using Eq. (1): […]

Chain of human ether-a-go-go (hERG) (Q12809 whole entry): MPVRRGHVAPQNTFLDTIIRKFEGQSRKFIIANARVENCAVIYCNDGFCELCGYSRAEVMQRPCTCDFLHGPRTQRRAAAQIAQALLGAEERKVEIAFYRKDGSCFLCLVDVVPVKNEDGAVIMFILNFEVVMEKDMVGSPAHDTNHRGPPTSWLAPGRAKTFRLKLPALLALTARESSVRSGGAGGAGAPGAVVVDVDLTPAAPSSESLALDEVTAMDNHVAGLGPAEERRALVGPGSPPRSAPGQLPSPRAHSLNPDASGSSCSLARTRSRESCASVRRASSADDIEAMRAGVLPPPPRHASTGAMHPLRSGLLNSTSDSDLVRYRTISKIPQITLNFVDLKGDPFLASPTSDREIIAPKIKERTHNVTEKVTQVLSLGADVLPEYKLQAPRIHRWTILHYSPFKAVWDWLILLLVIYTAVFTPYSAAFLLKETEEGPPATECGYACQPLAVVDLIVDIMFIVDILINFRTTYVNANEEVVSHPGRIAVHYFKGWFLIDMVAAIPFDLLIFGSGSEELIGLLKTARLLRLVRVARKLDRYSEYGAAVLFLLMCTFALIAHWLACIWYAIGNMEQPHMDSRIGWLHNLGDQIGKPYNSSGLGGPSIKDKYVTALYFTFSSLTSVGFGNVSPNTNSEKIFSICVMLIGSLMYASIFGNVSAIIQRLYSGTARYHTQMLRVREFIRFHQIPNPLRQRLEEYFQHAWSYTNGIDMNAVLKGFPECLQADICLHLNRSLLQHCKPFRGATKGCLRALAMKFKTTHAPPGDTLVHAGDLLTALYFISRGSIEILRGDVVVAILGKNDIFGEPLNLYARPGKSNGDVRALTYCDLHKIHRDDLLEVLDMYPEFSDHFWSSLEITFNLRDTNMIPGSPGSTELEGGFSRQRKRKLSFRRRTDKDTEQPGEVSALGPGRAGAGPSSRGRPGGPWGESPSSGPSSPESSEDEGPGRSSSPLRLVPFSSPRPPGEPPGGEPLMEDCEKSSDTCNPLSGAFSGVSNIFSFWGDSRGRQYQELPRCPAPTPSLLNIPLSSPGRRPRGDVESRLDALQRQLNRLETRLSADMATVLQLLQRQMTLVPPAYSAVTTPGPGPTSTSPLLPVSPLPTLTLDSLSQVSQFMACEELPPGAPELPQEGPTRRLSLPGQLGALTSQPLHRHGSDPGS

C[C@@]12COCCN1c1nc(-c3cccc4[nH]ccc34)ncc1N([C@H]1CC[C@H](O)CC1)C2=O [14c] gave an IC50 [1] of over 40000 nM, an IRAK1 inhibition [2] of 22% and an inhibition at 1 µM (DNA-PK) of 13%. For the same compound, the “Selectivity against PI3Kδ” value (PI3Kδ) was 6 ×, the “HLM Clint” value ([3]; apparent intrinsic clearance, scaled) was 6 mL min^–1 kg^–1 and the IC50 (CYP2C8) was 21000 nM. For the same compound, the Ames test [4] was “negative”, the inhibition at 1 µM [5] was 34% and the “Selectivity against PI3Kγ” value (PI3Kγ) was 180 ×. For the same compound, the “Selectivity against PI3Kβ” value (PI3Kβ) was 180 ×, the Kinase panel selectivity (panel of 298 kinases) was “only two had inhibition >20%” and the IC50 [6] was 6 nM.

For CC(F)(F)CN1C(=O)[C@]2(C)COCCN2c2nc(-c3ccc(NC(=O)NC4CC4)cc3)ncc21 [compound 1], the CLint scaled ([3]; human, liver microsomes, Figure 1 profile, read-out: HLM Clint) was 10 mL/min/kg, the IC50 (CYP2C8) was 7000 nM and the In vivo efficacy (mouse xenograft models) was “significant in vivo efficacy”. For the same compound, the IC50 [7] was 12 nM and the IC50 [6] was 49 nM.
